Data taken from PubChem BioAssay AID2060892 (Molecular Pharmacology Branch, DTP, NCI, 2025).
pIC50: −log10 of the molar value.

Test system: HOP-62 complex spheroids with HUVEC/MSC, viability
Assay: Anticancer human tumor HOP-62 cell line growth inhibition [RAS];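 note: spheroids exposed to agents for seven days before readout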;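 for viability, T/C: 100% = DMSO vehicle control viability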
Conditions: for pIC50: curve of first compound; for viability, T/C: stronger effect = lower value
How it was run: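 Agents were tested in combination matrices in half-log decrements from a top concentration at or near clinical Cmax (10 microM if undetermined). Targets were multi-cell spheroids of tumour lines plus HUVEC and MSC stromal cells.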

[1] = second compound 0.000949 µM, first compound 0.00316 µM
[2] = second compound 0.000949 µM, first compound 0.01 µM
[3] = second compound 0.000949 µM, first compound 0.0316 µM
[4] = second compound 0.000949 µM, first compound 0.1 µM
[5] = second compound 0.000949 µM, first compound 0.316 µM
[6] = second compound 0.000949 µM, first compound 1 µM
[7] = second compound 0.003 µM, first compound 0.00316 µM
[8] = second compound 0.003 µM, first compound 0.01 µM
[9] = second compound 0.003 µM, first compound 0.0316 µM
[10] = second compound 0.003 µM, first compound 0.1 µM
[11] = second compound 0.003 µM, first compound 0.316 µM
[12] = second compound 0.003 µM, first compound 1 µM
[13] = second compound 0.00949 µM, first compound 0.00316 µM
[14] = second compound 0.00949 µM, first compound 0.01 µM
[15] = second compound 0.00949 µM, first compound 0.0316 µM
[16] = second compound 0.00949 µM, first compound 0.1 µM
[17] = second compound 0.00949 µM, first compound 0.316 µM
[18] = second compound 0.00949 µM, first compound 1 µM
[19] = second compound 0.03 µM, first compound 0.00316 µM
[20] = second compound 0.03 µM, first compound 0.01 µM
[21] = second compound 0.03 µM, first compound 0.0316 µM
[22] = second compound 0.03 µM, first compound 0.1 µM
[23] = second compound 0.03 µM, first compound 0.316 µM
[24] = second compound 0.03 µM, first compound 1 µM
[25] = second compound 0.0949 µM, first compound 0.00316 µM
[26] = second compound 0.0949 µM, first compound 0.01 µM
[27] = second compound 0.0949 µM, first compound 0.0316 µM
[28] = second compound 0.0949 µM, first compound 0.1 µM
[29] = second compound 0.0949 µM, first compound 0.316 µM
[30] = second compound 0.0949 µM, first compound 1 µM
[31] = second compound 0.3 µM, first compound 0.00316 µM
[32] = second compound 0.3 µM, first compound 0.01 µM
[33] = second compound 0.3 µM, first compound 0.0316 µM
[34] = second compound 0.3 µM, first compound 0.1 µM
[35] = second compound 0.3 µM, first compound 0.316 µM
[36] = second compound 0.3 µM, first compound 1 µM

C=CC(=O)N1CCN(c2nc(OCC3CCCN3C)nc3c(F)c(-c4nc(N)cc(C)c4C(F)(F)F)c(Cl)cc23)C(C)C1 (stereo not drawn) + CCn1c(-c2cc(N3CCN(C)CC3)cnc2C(C)OC)c2c3cc(ccc31)-c1csc(n1)CC(NC(=O)C1CC1C)C(=O)N1CCCC(N1)C(=O)OCC(C)(C)C2
pIC50 (second compound 0.000949 µM): < 6.00
pIC50 (second compound 0.003 µM): < 6.00
pIC50 (second compound 0.00949 µM): < 6.00
pIC50 (second compound 0.03 µM): > 8.50
pIC50 (second compound 0.0949 µM): > 8.50
pIC50 (second compound 0.3 µM): > 8.50
viability, T/C [1]: 92.6%
viability, T/C [2]: 85.2%
viability, T/C [3]: 66.2%
viability, T/C [4]: 88.2%
viability, T/C [5]: 84%
viability, T/C [6]: 66.1%
viability, T/C [7]: 75.6%
viability, T/C [8]: 75.9%
viability, T/C [9]: 69.2%
viability, T/C [10]: 74.2%
viability, T/C [11]: 78.5%
viability, T/C [12]: 54.5%
viability, T/C [13]: 70.7%
viability, T/C [14]: 52.2%
viability, T/C [15]: 52.9%
viability, T/C [16]: 59.8%
viability, T/C [17]: 49.7%
viability, T/C [18]: 46.1%
viability, T/C [19]: 46.8%
viability, T/C [20]: 43.2%
viability, T/C [21]: 43.5%
viability, T/C [22]: 32.2%
viability, T/C [23]: 31.3%
viability, T/C [24]: 38.5%
viability, T/C [25]: 35.6%
viability, T/C [26]: 37.1%
viability, T/C [27]: 34%
viability, T/C [28]: 36.7%
viability, T/C [29]: 29.2%
viability, T/C [30]: 27.2%
viability, T/C [31]: 39.4%
viability, T/C [32]: 52.7%
viability, T/C [33]: 37.7%
viability, T/C [34]: 28.8%
viability, T/C [35]: 31.7%
viability, T/C [36]: 31.6%

CC1(C)CCC(Nc2ncc(C(F)(F)F)c(-c3c[nH]c4c(P(C)(C)=O)c(C#N)ccc34)n2)CN1 (stereo not drawn) + CCn1c(-c2cc(N3CCN(C)CC3)cnc2C(C)OC)c2c3cc(ccc31)-c1csc(n1)CC(NC(=O)C1CC1C)C(=O)N1CCCC(N1)C(=O)OCC(C)(C)C2
pIC50 (second compound 0.000949 µM): < 6.52
pIC50 (second compound 0.003 µM): 6.56
pIC50 (second compound 0.00949 µM): < 6.52
pIC50 (second compound 0.03 µM): < 6.52
pIC50 (second compound 0.0949 µM): < 6.52
pIC50 (second compound 0.3 µM): > 9.02
viability, T/C (second compound 0.000949 µM, first compound 0.000949 µM): 106%
viability, T/C (second compound 0.000949 µM, first compound 0.003 µM): 95.9%
viability, T/C (second compound 0.000949 µM, first compound 0.00949 µM): 54.9%
viability, T/C (second compound 0.000949 µM, first compound 0.03 µM): 71.5%
viability, T/C (second compound 0.000949 µM, first compound 0.0949 µM): 76.7%
viability, T/C (second compound 0.000949 µM, first compound 0.3 µM): 38.8%
viability, T/C (second compound 0.003 µM, first compound 0.000949 µM): 83%
viability, T/C (second compound 0.003 µM, first compound 0.003 µM): 73%
viability, T/C (second compound 0.003 µM, first compound 0.00949 µM): 61.9%
viability, T/C (second compound 0.003 µM, first compound 0.03 µM): 74%
viability, T/C (second compound 0.003 µM, first compound 0.0949 µM): 79.7%
viability, T/C (second compound 0.003 µM, first compound 0.3 µM): 48%
viability, T/C (second compound 0.00949 µM, first compound 0.000949 µM): 68.3%
viability, T/C (second compound 0.00949 µM, first compound 0.003 µM): 52.8%
viability, T/C (second compound 0.00949 µM, first compound 0.00949 µM): 67.2%
viability, T/C (second compound 0.00949 µM, first compound 0.03 µM): 68.7%
viability, T/C (second compound 0.00949 µM, first compound 0.0949 µM): 67.8%
viability, T/C (second compound 0.00949 µM, first compound 0.3 µM): 54.1%
viability, T/C (second compound 0.03 µM, first compound 0.000949 µM): 50.9%
viability, T/C (second compound 0.03 µM, first compound 0.003 µM): 56.4%
viability, T/C (second compound 0.03 µM, first compound 0.00949 µM): 72.1%
viability, T/C (second compound 0.03 µM, first compound 0.03 µM): 74.3%
viability, T/C (second compound 0.03 µM, first compound 0.0949 µM): 51.6%
viability, T/C (second compound 0.03 µM, first compound 0.3 µM): 66%
viability, T/C (second compound 0.0949 µM, first compound 0.000949 µM): 49.5%
viability, T/C (second compound 0.0949 µM, first compound 0.003 µM): 59%
viability, T/C (second compound 0.0949 µM, first compound 0.00949 µM): 64.4%
viability, T/C (second compound 0.0949 µM, first compound 0.03 µM): 66.1%
viability, T/C (second compound 0.0949 µM, first compound 0.0949 µM): 51.4%
viability, T/C (second compound 0.0949 µM, first compound 0.3 µM): 70.2%
viability, T/C (second compound 0.3 µM, first compound 0.000949 µM): 43.8%
viability, T/C (second compound 0.3 µM, first compound 0.003 µM): 59.2%
viability, T/C (second compound 0.3 µM, first compound 0.00949 µM): 70.8%
viability, T/C (second compound 0.3 µM, first compound 0.03 µM): 56.9%
viability, T/C (second compound 0.3 µM, first compound 0.0949 µM): 66.1%
viability, T/C (second compound 0.3 µM, first compound 0.3 µM): 70.7%

C=CC(=O)Nc1cc(Nc2nccc(-c3cn(C)c4ccccc34)n2)c(OC)cc1N(C)CCN(C)C + CCn1c(-c2cccnc2C(C)OC)c2c3cc(ccc31)N1CCOC(CC(NC(=O)C(C(C)C)N(C)C(=O)C3(F)CCN(C(=O)C#CC(C)(C)N(C)C)CC3)C(=O)N3CCCC(N3)C(=O)OCC(C)(C)C2)C1
pIC50 (second compound 0.000949 µM): < 6.00
pIC50 (second compound 0.003 µM): < 6.00
pIC50 (second compound 0.00949 µM): < 6.00
pIC50 (second compound 0.03 µM): < 6.00
pIC50 (second compound 0.0949 µM): < 6.00
pIC50 (second compound 0.3 µM): < 6.00
viability, T/C [1]: 100%
viability, T/C [2]: 107%
viability, T/C [3]: 83.9%
viability, T/C [4]: 112%
viability, T/C [5]: 100%
viability, T/C [6]: 54%
viability, T/C [7]: 94.1%
viability, T/C [8]: 95.4%
viability, T/C [9]: 94.1%
viability, T/C [10]: 105%
viability, T/C [11]: 103%
viability, T/C [12]: 71.7%
viability, T/C [13]: 92.3%
viability, T/C [14]: 84.2%
viability, T/C [15]: 85.3%
viability, T/C [16]: 90.4%
viability, T/C [17]: 73.4%
viability, T/C [18]: 54.6%
viability, T/C [19]: 97.5%
viability, T/C [20]: 90.5%
viability, T/C [21]: 83.4%
viability, T/C [22]: 78.6%
viability, T/C [23]: 60.1%
viability, T/C [24]: 66.3%
viability, T/C [25]: 96.7%
viability, T/C [26]: 80%
viability, T/C [27]: 84.2%
viability, T/C [28]: 67.3%
viability, T/C [29]: 64.3%
viability, T/C [30]: 58.6%
viability, T/C [31]: 84%
viability, T/C [32]: 84%
viability, T/C [33]: 73.5%
viability, T/C [34]: 62.1%
viability, T/C [35]: 60.2%
viability, T/C [36]: 54.6%

O=C(c1ccc(F)c(F)c1Nc1ccc(I)cc1F)N1CC(O)([C@@H]2CCCCN2)C1 + CCn1c(-c2cccnc2C(C)OC)c2c3cc(ccc31)N1CCOC(CC(NC(=O)C(C(C)C)N(C)C(=O)C3(F)CCN(C(=O)C#CC(C)(C)N(C)C)CC3)C(=O)N3CCCC(N3)C(=O)OCC(C)(C)C2)C1
pIC50 (second compound 0.000949 µM): 6.42
pIC50 (second compound 0.003 µM): 6.06
pIC50 (second compound 0.00949 µM): 6.78
pIC50 (second compound 0.03 µM): 6.87
pIC50 (second compound 0.0949 µM): 6.94
pIC50 (second compound 0.3 µM): 7.15
viability, T/C [1]: 107%
viability, T/C [2]: 123%
viability, T/C [3]: 82%
viability, T/C [4]: 87.2%
viability, T/C [5]: 52.4%
viability, T/C [6]: 25.6%
viability, T/C [7]: 106%
viability, T/C [8]: 93.9%
viability, T/C [9]: 90.3%
viability, T/C [10]: 110%
viability, T/C [11]: 74.9%
viability, T/C [12]: 46.9%
viability, T/C [13]: 85.6%
viability, T/C [14]: 75.6%
viability, T/C [15]: 78.3%
viability, T/C [16]: 60.6%
viability, T/C [17]: 36.7%
viability, T/C [18]: 30.9%
viability, T/C [19]: 88.8%
viability, T/C [20]: 85.8%
viability, T/C [21]: 71.8%
viability, T/C [22]: 60.9%
viability, T/C [23]: 28.4%
viability, T/C [24]: 32.6%
viability, T/C [25]: 87.6%
viability, T/C [26]: 78.2%
viability, T/C [27]: 72.2%
viability, T/C [28]: 55.8%
viability, T/C [29]: 27.1%
viability, T/C [30]: 26.6%
viability, T/C [31]: 82.9%
viability, T/C [32]: 70%
viability, T/C [33]: 67.3%
viability, T/C [34]: 42.4%
viability, T/C [35]: 31.4%
viability, T/C [36]: 26.1%
